Marks after values point to notes of the source that are not given here.
conditions: pH 2.3

| Structure (SMILES) | Log P |
| --- | --- |
| CON(C)C(=O)C(C#N)=C(NC(C)C(C)C)c1cccnc1Cl (stereo not drawn) [Compound 1246] | 2.68 |
| CC(C)C(C)NC(=C(C#N)C(=O)OC1CCC1)c1cccnc1Cl (stereo not drawn) [Compound 1284] | 3.79^[c]; 3.79^[b] |

Other lines, results leading:

| Log P | Structure (SMILES) |
| --- | --- |
| 2.91 | CCN(C)C(=O)C(C#N)=C(NC(C)C(C)C)c1cccnc1Cl (stereo not drawn) [Compound 1282] |
| 4.02^[c]; 4.02^[b] | CC(C)C(C)NC(=O)C(C#N)=C(NC(C)C(C)C)c1cccnc1Cl (stereo not drawn) [Compound 1283] |
| 2.56 | CCOC(=O)C(C#N)=C(Nc1cnc2sccc2c1)c1cccnc1Cl [Compound 1310] |

same assay, conditions: pH 2.7

| Structure (SMILES) | Log P |
| --- | --- |
| CCOC(=O)C(C#N)=C(NC(C#N)c1ccccc1Br)c1cn(C)nc1C(F)F (stereo not drawn) [Compound 1218] | 3.13^[a] |
| CCOC(=O)C(C#N)=C(NC(C#N)c1cccc(Cl)c1Cl)c1cn(C)nc1C(F)F (stereo not drawn) [Compound 1219] | 3.44^[a] |
| C#CCC(C#N)NC(=C(C#N)C(=O)OCC)c1cn(C)nc1C(F)F (stereo not drawn) [Compound 1220] | 2.33^[a] |
| CCOC(=O)C(C#N)=C(NC(C#N)Cc1ccccc1)c1cn(C)nc1C(F)F (stereo not drawn) [Compound 1221] | 2.98^[a] |
| CCOC(=O)C(C#N)=C(NC(c1ccc(Cl)cc1)C(F)(F)F)c1cn(C)nc1C(F)F (stereo not drawn) [Compound 1222] | 4.01^[a] |
| CCOC(=O)C(C#N)=C(NC(Cc1ncccc1C)C(F)(F)F)c1cn(C)nc1C(F)F (stereo not drawn) [Compound 1223] | 2.94^[a] |
| CCOC(=O)C(C#N)=C(NC(c1ccccc1)C(F)(F)F)c1cn(C)nc1C(F)F (stereo not drawn) [Compound 1224] | 3.55^[a] |
| CCOC(=O)C(C#N)=C(NC(C)c1cccc(OC)c1)c1cn(C)nc1C(F)F (stereo not drawn) [Compound 1225] | 3.21^[a] |
| CCOC(=O)C(C#N)=C(Nc1ccccc1C(=O)C1CC1)c1cn(C)nc1C(F)F [Compound 1226] | 3^[a] |
| CCOC(=O)C(C#N)=C(Nc1ccccc1OC(F)(F)F)c1cn(C)nc1C(F)F [Compound 1227] | 3.42^[a] |
| CCOC(=O)C(C#N)=C(Nc1ccccc1SCC)c1cn(C)nc1C(F)F [Compound 1228] | 3.46^[a] |
| CCOC(=O)C(C#N)=C(NC(C)(C)c1ccc(OC)cc1)c1cn(C)nc1C(F)F [Compound 1229] | 3.35^[a] |
| CCOC(=O)C(C#N)=C(NC(C#N)c1ccccc1)c1cn(C)nc1C(F)F (stereo not drawn) [Compound 1230] | 2.94^[a] |
| CCOC(=O)C(C#N)=C(NC(C#N)c1ccc(Cl)cc1Cl)c1cn(C)nc1C(F)F (stereo not drawn) [Compound 1231] | 3.55^[a] |
| CCOC(=O)C(C#N)=C(NC(C#N)c1cnn(-c2ccccc2)c1)c1cn(C)nc1C(F)F (stereo not drawn) [Compound 1232] | 3.15^[a] |
| CCOC(=O)C(C#N)=C(NC(C)COCc1ccc(C(F)(F)F)cc1)c1cn(C)nc1C(F)F (stereo not drawn) [Compound 1233] | 3.99^[a] |
| CCOC(=O)C(C#N)=C(NC(C)CSc1ccc(Cl)cc1)c1cn(C)nc1C(F)F (stereo not drawn) [Compound 1234] | 3.87^[a] |

| Structure (SMILES) | Log P |
| --- | --- |
| CCOC(=O)C(C#N)=C(NC(C)(C)C#Cc1ccc(C#N)cc1)c1cn(C)nc1C(F)F [Compound 1238] | 3.69^[a] |
| CCNC(=O)C(C#N)=C(NC(C)C(C)C)c1ccnc(C)c1Cl (stereo not drawn) [Compound 1249] | 3.08^[a] |
| CCOC(=O)C(C#N)=C(NCC(N)=O)c1cn(C)nc1C(F)F [Compound 1255] | 2.1^[a] |
| CCOC(=O)C(C#N)=C(Nc1ccccc1Cl)c1cccnc1Cl [Compound 1263] | 3.35^[a] |
| CCOC(=O)C(C#N)=C(Nc1ccc(N(C)C)cc1)c1cccnc1Cl [Compound 1264] | 3.17^[a] |
| CCOC(=O)C(C#N)=C(Nc1ccc(C#N)cc1)c1cccnc1Cl [Compound 1265] | 2.73^[a] |
| CCOC(=O)C(C#N)=C(Nc1cccc(SC)c1)c1cccnc1Cl [Compound 1266] | 3.42^[a] |
| CCOC(=O)C(C#N)=C(NC(C)(C)C#Cc1ccc(C)cc1)c1cccnc1Cl [Compound 1268] | 4.41^[a] |
| CCOC(=O)C(C#N)=C(Nc1ccc2ncsc2c1)c1cccnc1Cl [Compound 1269] | 2.54^[a] |
| CCOC(=O)C(C#N)=C(NC(C)(C)C=C(Cl)Cl)c1cccnc1Cl [Compound 1271] | 3.55^[a] |
| CCOC(=O)C(C#N)=C(NC(C)(C)C(C)(C)C)c1cccnc1Cl [Compound 1273] | 3.8^[a] |
| CC#CC1(NC(=C(C#N)C(=O)OCC)c2cccnc2Cl)CCCC1 [Compound 1275] | 3.69^[a] |
| CCOC(=O)C(C#N)=C(NC(C)c1nccs1)c1ccnc(Cl)c1Cl (stereo not drawn) [Compound 1276] | 2.96 |
| CCNC(=O)C(C#N)=C(NC(C)C(C)C)c1cn(C)nc1C(F)F (stereo not drawn) [Compound 1278] | 2.71^[a] |
| C#CCNC(=O)C(C#N)=C(NC(C)c1nccs1)c1cn(C)nc1C(F)F (stereo not drawn) [Compound 1297] | 2.04^[a] |
| CCOC(=O)C(C#N)=C(NC(C)C(=O)NC)c1ccnc(Cl)c1F (stereo not drawn) [Compound 1324] | 2.15^[a] |
| CCOC(=O)C(C#N)=C(NC(C)c1nccs1)c1ccnc(SC)c1Cl (stereo not drawn) [Compound 1331] | 3.53^[a] |

Further lines, results first:

| Log P | Structure (SMILES) |
| --- | --- |
| 3.67^[a] | CCOC(=O)C(C#N)=C(NC(C)(C)C#Cc1ccc(C#N)cc1)c1cccnc1Cl [Compound 1272] |
| 2.66^[a] | CCOC(=O)C(C#N)=C(NC(C)(C)C(=O)OC)c1cccnc1Cl [Compound 1274] |
| 2.57^[a] | CCOC(=O)C(C#N)=C(NC(C)c1nccs1)c1ccnc(C)c1Cl (stereo not drawn) [Compound 1285] |
| 2.45^[a] | CC(C)C(C)NC(=C(C#N)C(=O)N(C)C)c1cn(C)nc1C(F)F (stereo not drawn) [Compound 1286] |
| 2.57^[a] | CCNC(=O)C(C#N)=C(NC(C)c1nccs1)c1ccnc(Cl)c1Cl (stereo not drawn) [Compound 1289] |
| 3.02^[a] | CCOC(=O)C(C#N)=C(NC(C)c1nccs1)c1ccnc(Br)c1Cl (stereo not drawn) [Compound 1290] |
| 1.59^[a] | CC(NC(=C(C#N)C(=O)N(C)C)c1cn(C)nc1C(F)F)c1ccccn1 (stereo not drawn) [Compound 1295] |
| 1.81^[a] | CC(NC(=C(C#N)C(=O)N(C)C)c1cn(C)nc1C(F)F)c1nccs1 (stereo not drawn) [Compound 1296] |
| 1.84^[a] | CC(C)[C@H](C)N/C(=C(/C#N)C(=O)NC1COC1)c1cn(C)nc1C(F)F [Compound 1298] |
| 2.44^[a] | CC(C)C(C)NC(=C(C#N)C(=O)NCCC#N)c1cn(C)nc1C(F)F (stereo not drawn) [Compound 1299] |
| 2.41^[a] | CCOC(=O)C(C#N)=C(NC(C)c1ccccn1)c1cnn(C)c1C(F)F (stereo not drawn) [Compound 1300] |
| 3.23^[a] | CCOC(=O)C(C#N)=C(NC(C)C(C)C)c1cnn(C)c1C(F)F (stereo not drawn) [Compound 1301] |
| 2.46^[a] | CCOC(=O)C(C#N)=C(NC(C)c1nccs1)c1cnn(C)c1C(F)F (stereo not drawn) [Compound 1302] |
| 2.98^[a] | CCOC(=O)C(C#N)=C(NC(C)C1CC1)c1cnn(C)c1C(F)F (stereo not drawn) [Compound 1303] |
| 2.84^[a] | CCOC(=O)C(C#N)=C(NC1CCC1)c1cnn(C)c1C(F)F [Compound 1304] |
| 2.62^[a] | CCNC(=O)C(C#N)=C(NC(C)c1nccs1)c1ccnc(Br)c1Cl (stereo not drawn) [Compound 1305] |
| 2.18^[a] | CCNC(=O)C(C#N)=C(NC(C)c1nccs1)c1ccnc(C)c1Cl (stereo not drawn) [Compound 1306] |
| 2.11^[a] | CCNC(=O)C(C#N)=C(NC(C)c1nccs1)c1cnn(C)c1C(F)F (stereo not drawn) [Compound 1308] |
| 2.64^[a] | CCNC(=O)C(C#N)=C(NC(C)C1CC1)c1cnn(C)c1C(F)F (stereo not drawn) [Compound 1309] |
| 3.81^[a] | CCOC(=O)C(C#N)=C(NC(C)C(C)C)c1ccnc(Cl)c1F (stereo not drawn) [Compound 1311] |
| 3^[a] | CCOC(=O)C(C#N)=C(NC(C)c1ccccn1)c1ccnc(Cl)c1F (stereo not drawn) [Compound 1312] |

| Log P | Structure (SMILES) |
| --- | --- |
| 2.96^[a] | CCOC(=O)C(C#N)=C(NC(C)c1nccs1)c1ccnc(Cl)c1F (stereo not drawn) [Compound 1313] |
| 3.87^[a] | CCOC(=O)C(C#N)=C(NC(C)C(C)C)c1ccnc(Br)c1F (stereo not drawn) [Compound 1315] |
| 3.44^[a] | CCNC(=O)C(C#N)=C(NC(C)C(C)C)c1ccnc(Cl)c1F (stereo not drawn) [Compound 1316] |
| 3.31^[a] | CCOC(=O)C(C#N)=C(NC(C)C(C)C)c1ccnc(C)c1F (stereo not drawn) [Compound 1317] |
| 3.5^[a] | CCOC(=O)C(C#N)=C(NC(C)C1CC1)c1ccnc(Cl)c1F (stereo not drawn) [Compound 1318] |
| 2.48^[a] | CCOC(=O)C(C#N)=C(NC(C)c1nccs1)c1ccnc(C)c1F (stereo not drawn) [Compound 1319] |
| 2.5^[a] | CCOC(=O)C(C#N)=C(NC(C)c1ccccn1)c1ccnc(C)c1F (stereo not drawn) [Compound 1320] |
| 3.39^[a] | CCOC(=O)C(C#N)=C(NC1CCC1)c1ccnc(Cl)c1F [Compound 1321] |
| 3.46^[a] | CCNC(=O)C(C#N)=C(NC(C)C(C)C)c1ccnc(Br)c1F (stereo not drawn) [Compound 1323] |
| 3.39^[a] | CC#CC(C)NC(=C(C#N)C(=O)OCC)c1ccnc(Cl)c1F (stereo not drawn) [Compound 1325] |
| 2.43^[a] | CC(C)C(C)NC(=C(C#N)C(=O)N1CCOCC1)c1cn(C)nc1C(F)F (stereo not drawn) [Compound 1326] |
| 1.79^[a] | CC(NC(=C(C#N)C(=O)N1CCOCC1)c1cn(C)nc1C(F)F)c1nccs1 (stereo not drawn) [Compound 1327] |
| 1.63^[a] | CC(NC(=C(C#N)C(=O)N1CCOCC1)c1cn(C)nc1C(F)F)c1ccccn1 (stereo not drawn) [Compound 1328] |
| 2.5^[a] | CCNC(=O)C(C#N)=C(NC(C)c1ccccn1)c1ccnc(Cl)c1F (stereo not drawn) [Compound 1329] |
| 3^[a] | CCOC(=O)C(C#N)=C(NC(C)c1nccs1)c1ccnc(Br)c1F (stereo not drawn) [Compound 1330] |
| 2.71^[a] | CCOC(=O)C(C#N)=C(NC(CC)COC)c1cn(C)nc1C(F)F (stereo not drawn) [Compound 1332] |
| 3.29^[a] | CCOC(=O)C(C#N)=C(NC1CCCCC1)c1cn(C)nc1C(F)F [Compound 1333] |
| 1.22^[a] | CCOC(=O)C(C#N)=C(NC(CC)CN(C)C)c1cn(C)nc1C(F)F (stereo not drawn) [Compound 1334] |
| 2.28^[a] | CCCC(CO)NC(=C(C#N)C(=O)OCC)c1cn(C)nc1C(F)F (stereo not drawn) [Compound 1335] |
| 3.71^[a] | CC#CC1(NC(=C(C#N)C(=O)OCC)c2cn(C)nc2C(F)F)CCCCC1 [Compound 1336] |

same assay, conditions: pH 7.5

| Structure (SMILES) | Log P |
| --- | --- |
| CON(C)C(=O)C(C#N)=C(NC(C)C(C)C)c1cccnc1Cl (stereo not drawn) [Compound 1246] | 2.67 |
| CCOC(=O)C(C#N)=C(NC(C)c1nccs1)c1ccnc(Cl)c1Cl (stereo not drawn) [Compound 1276] | 2.91 |
| CC(NC(=C(C#N)C(=O)OC1COC1)c1cccnc1Cl)C1CC1 (stereo not drawn) [Compound 1281] | 2.31 |
| CCN(C)C(=O)C(C#N)=C(NC(C)C(C)C)c1cccnc1Cl (stereo not drawn) [Compound 1282] | 2.9 |
| CC(C)C(C)NC(=O)C(C#N)=C(NC(C)C(C)C)c1cccnc1Cl (stereo not drawn) [Compound 1283] | 4.02^[c]; 4.02^[b] |
| CC(C)C(C)NC(=C(C#N)C(=O)OC1CCC1)c1cccnc1Cl (stereo not drawn) [Compound 1284] | 3.79^[c]; 3.79^[b] |
| CCOC(=O)C(C#N)=C(Nc1cnc2sccc2c1)c1cccnc1Cl [Compound 1310] | 2.49 |

Reference: patent US8476197B2, “Aminopropenoates as fungicides” (priority 2009, dated 2013)
